Measured values reported in article PMC8554850, “Allergens of the urushiol family promote mitochondrial dysfunction by inhibiting the electron transport at the level of cytochromes b and chemically modify cytochrome c1” (Biological Research, 2021).

Tests used:
cytochrome c1 = biological target: T1, cytochrome c1 (Bos taurus, UniProt P00125); experiment: tritium labelling of mitochondria, 1D and 2D-PAGE photofluorography, western blot, tryptic mass fingerprint; type: binding; conditions: covalent; labelled compound; 5 µM, 30 min, 25 °C, then chased with 1 mM cold litreol; Lys202 and N-terminal peptide proposed
T1 construct: gene CYC1; native, in isolated heart mitochondria (complex III, inner membrane); about 27 kD on SDS-PAGE; printed peptides SDLELHPPSYPWSHR (1-15) and WAAEPEHDHRK (192-202)
T1 sequence (P00125 85-325): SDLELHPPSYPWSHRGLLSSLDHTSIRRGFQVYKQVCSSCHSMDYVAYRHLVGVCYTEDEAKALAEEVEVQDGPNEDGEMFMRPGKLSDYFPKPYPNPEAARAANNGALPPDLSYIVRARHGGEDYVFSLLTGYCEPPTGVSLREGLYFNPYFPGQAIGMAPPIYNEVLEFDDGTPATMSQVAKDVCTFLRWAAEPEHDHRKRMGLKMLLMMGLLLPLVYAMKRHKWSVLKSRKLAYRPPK

[1] = biological target: T2, complex III (cytochrome bc1) (Rattus norvegicus, UniProt P00159); experiment: duroquinol:cytochrome c reduction, Hanes-Woolf; cytochrome b redox spectrophotometry; type: biochemical
T2 construct: gene Mt-cyb; native complex III in liver mitochondria / submitochondrial particles; with Cytochrome c1, heme protein, mitochondrial; Cytochrome b-c1 complex subunit Rieske, mitochondrial
T2 sequence (P00159 whole entry): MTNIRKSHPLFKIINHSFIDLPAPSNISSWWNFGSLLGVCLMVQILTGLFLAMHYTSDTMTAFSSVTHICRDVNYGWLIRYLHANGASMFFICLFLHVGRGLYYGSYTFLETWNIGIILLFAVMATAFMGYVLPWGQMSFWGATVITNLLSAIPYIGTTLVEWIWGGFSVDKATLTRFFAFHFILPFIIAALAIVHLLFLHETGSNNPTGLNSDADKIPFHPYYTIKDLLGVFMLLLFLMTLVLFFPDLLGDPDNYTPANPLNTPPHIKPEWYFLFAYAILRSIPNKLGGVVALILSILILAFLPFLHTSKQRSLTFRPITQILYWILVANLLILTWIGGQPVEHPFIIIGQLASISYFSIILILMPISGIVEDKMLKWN
T2 sequence (D3ZFQ8 87-326 partner): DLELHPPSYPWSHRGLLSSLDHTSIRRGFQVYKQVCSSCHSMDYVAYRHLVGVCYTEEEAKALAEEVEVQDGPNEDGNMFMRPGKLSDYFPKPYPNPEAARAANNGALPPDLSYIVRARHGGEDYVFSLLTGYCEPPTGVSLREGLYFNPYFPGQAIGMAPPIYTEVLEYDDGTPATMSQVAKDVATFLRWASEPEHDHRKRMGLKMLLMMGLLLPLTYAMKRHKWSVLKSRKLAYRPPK
T2 sequence (P20788 79-274 partner): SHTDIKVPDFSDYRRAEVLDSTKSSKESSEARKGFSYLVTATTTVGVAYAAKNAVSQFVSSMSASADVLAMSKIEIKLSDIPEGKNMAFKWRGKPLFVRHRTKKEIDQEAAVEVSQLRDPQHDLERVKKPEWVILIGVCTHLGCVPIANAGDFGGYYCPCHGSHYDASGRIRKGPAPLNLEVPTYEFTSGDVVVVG

Structure (SMILES): CCCCCCCCCCCCCCCc1cccc(O)c1O [3H-litreol]
- tritium labelling of mitochondria, 1D and 2D-PAGE photofluorography, western blo (cytochrome c1): Litreol binds to an inner mitochondrial membrane protein from bovine heart mitochondria

Structure (SMILES): Cc1c(C)c(O)c(C)c(C)c1O [duroquinol]
- duroquinol:cytochrome c reduction, Hanes-Woolf; cytochrome b redox spectrophotom ([1]; electron donor, acceptor cytochrome c): The enzyme kinetics of complex III for Dur and cytochrome c were measured

Structure (SMILES): CCCC/C=C\CCCCCCCCCc1cccc(O)c1O [litreol, 3-(10-Z-pentadecenyl)-catechol]
- duroquinol:cytochrome c reduction, Hanes-Woolf; cytochrome b redox spectrophotom ([1]; noncompetitive vs duroquinol and cytochrome c, 10 µM litreol, electron flow halted between bL and bH, pH 7.4): Litreol is a noncompetitive inhibitor of complex III at the level of the cytochrome bc1
